Reference: US11254686B1 (Corvus Pharmaceuticals, Inc., priority 2017, dated 2022)
pIC50: −log10 of the molar value.

What was measured:
adenosine A2B receptor = adenosine A2B receptor (Homo sapiens (Human), UniProt P29275); experiment: Adenosine receptor activity assay (Table 1), A2B activity; assay type: biochemical; settings: for Ratio: A2A activity to A2B activity (A2A/A2B); for pIC50: read-out: Ave A2B cAMP IC50
adenosine A2A receptor = adenosine A2A receptor (Homo sapiens (Human), UniProt P29274); experiment: Adenosine receptor activity assay (Table 1), A2A activity; assay type: biochemical; settings: read-out: Ave A2A cAMP IC50
adenosine A1 receptor = adenosine A1 receptor (Homo sapiens (Human), UniProt P30542); experiment: Adenosine receptor activity assay (Table 1), A1 cAMP; assay type: cell-based
adenosine A3 receptor = adenosine A3 receptor (Homo sapiens (Human), UniProt P0DMS8); experiment: Adenosine receptor activity assay (Table 1), A3 cAMP; assay type: cell-based
Sequence of adenosine A3 receptor (P0DMS8 whole entry): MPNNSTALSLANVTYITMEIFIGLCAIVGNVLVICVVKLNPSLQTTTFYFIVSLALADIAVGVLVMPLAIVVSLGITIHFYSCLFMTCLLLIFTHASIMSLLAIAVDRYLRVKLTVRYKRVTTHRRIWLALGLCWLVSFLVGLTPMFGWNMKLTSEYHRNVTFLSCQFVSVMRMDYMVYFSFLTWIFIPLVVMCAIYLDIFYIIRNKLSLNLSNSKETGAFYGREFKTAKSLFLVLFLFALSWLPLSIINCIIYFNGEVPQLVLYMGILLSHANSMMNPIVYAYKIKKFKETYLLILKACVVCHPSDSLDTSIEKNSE

Sequence of adenosine A2B receptor (P29275 whole entry): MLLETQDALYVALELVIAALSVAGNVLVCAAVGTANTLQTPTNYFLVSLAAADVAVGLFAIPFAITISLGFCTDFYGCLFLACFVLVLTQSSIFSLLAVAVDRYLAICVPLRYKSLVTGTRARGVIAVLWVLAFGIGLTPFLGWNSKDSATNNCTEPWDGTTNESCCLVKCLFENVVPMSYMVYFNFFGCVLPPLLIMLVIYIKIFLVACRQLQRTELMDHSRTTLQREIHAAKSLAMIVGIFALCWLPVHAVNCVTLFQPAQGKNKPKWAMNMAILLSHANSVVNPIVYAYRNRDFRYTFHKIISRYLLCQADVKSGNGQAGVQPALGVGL
Sequence of adenosine A2A receptor (P29274 whole entry): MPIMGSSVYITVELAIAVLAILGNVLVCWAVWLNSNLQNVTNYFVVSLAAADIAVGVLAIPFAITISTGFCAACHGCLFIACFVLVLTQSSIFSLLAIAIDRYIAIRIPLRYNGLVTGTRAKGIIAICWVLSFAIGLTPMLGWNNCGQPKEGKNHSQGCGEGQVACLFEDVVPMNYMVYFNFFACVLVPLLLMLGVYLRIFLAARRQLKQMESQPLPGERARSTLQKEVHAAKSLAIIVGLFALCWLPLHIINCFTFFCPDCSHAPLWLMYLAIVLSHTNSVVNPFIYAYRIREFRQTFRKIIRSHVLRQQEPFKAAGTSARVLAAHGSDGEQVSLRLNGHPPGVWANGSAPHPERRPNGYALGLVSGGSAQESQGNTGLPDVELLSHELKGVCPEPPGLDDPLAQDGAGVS
Sequence of adenosine A1 receptor (P30542 whole entry): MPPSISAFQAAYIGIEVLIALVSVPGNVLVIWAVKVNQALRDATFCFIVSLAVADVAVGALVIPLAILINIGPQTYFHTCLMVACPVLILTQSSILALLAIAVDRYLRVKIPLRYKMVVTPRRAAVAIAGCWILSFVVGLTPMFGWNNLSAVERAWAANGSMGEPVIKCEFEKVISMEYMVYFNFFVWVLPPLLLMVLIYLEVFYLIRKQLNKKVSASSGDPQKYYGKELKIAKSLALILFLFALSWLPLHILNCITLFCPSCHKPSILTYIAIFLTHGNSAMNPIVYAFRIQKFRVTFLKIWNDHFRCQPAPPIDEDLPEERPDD

Molecule | Ratio (adenosine A2B receptor) | pIC50 (adenosine A2B receptor) | pIC50 (adenosine A2A receptor) | pIC50 (adenosine A1 receptor) | pIC50 (adenosine A3 receptor)
C[C@H](Nc1nc(C(=O)NC(C)(C)C)c2sccc2n1)c1ccccn1 [Example Z201, (S)—N-(tert-Butyl)-2-((1-(pyridin-2-yl)ethyl)amino)thieno[3,2-d]pyrimidine-4-carboxamide] | 2.22 | 7.30 to 8.00 | 7.00 to 7.30 | 7.00 to 7.30 | 7.00 to 7.30
CC(C)(C)OC(=O)N[C@@H]1CCN(C(=O)c2nc(NCc3cncc(F)c3)nc3ccsc23)C1 [Example Z239, tert-Butyl (R)-(1-(2-(((5-fluoropyridin-3-yl)methyl)amino)thieno[3,2-d]pyrimidine-4-carbonyl)pyrrolidin-3-yl)carbamate] | 14.97 | > 8.00 | 6.30 to 7.00 | < 6.30 | 7.30 to 8.00
CO[C@H]1CCN(C(=O)c2nc(N[C@@H](C)c3ccccn3)nc3ccsc23)C1 [Example Z255, ((S)-3-Methoxypyrrolidin-1-yl)(2-(((S)-1-(pyridin-2-yl)ethyl)amino)thieno[3,2-d]pyrimidin-4-yl)methanone] | 1.81 | 7.30 to 8.00 | 7.30 to 8.00 | < 6.30 | < 6.30
C[C@H](O)CNC(=O)c1nc(N[C@@H](C)c2cccnc2)nc2cc(C(F)(F)F)sc12 [Example Z347, N—((S)-2-Hydroxypropyl)-2-(((S)-1-(pyridin-3-yl)ethyl)amino)-6-(trifluoromethyl)thieno[3,2-d]pyrimidine-4-carboxamide] | 98.22 | 7.30 to 8.00 | < 6.30 | < 6.30 | 7.00 to 7.30
C[C@H](Nc1nc(C(=O)NCCO)c2sccc2n1)c1cncc(Cl)c1 [Example Z291, (S)-2-((1-(5-Chloropyridin-3-yl)ethyl)amino)-N-(2-hydroxyethyl)thieno[3,2-d]pyrimidine-4-carboxamide] | 50.12 | 7.30 to 8.00 | < 6.30 | 7.00 to 7.30 | < 6.30
CO[C@@H]1CCN(C(=O)c2nc(N[C@@H](C)c3cncc(Cl)c3)nc3ccsc23)C1 [Example Z253, (2-(((S)-1-(5-Chloropyridin-3-yl)ethyl)amino)thieno[3,2-d]pyrimidin-4-yl)((R)-3-methoxypyrrolidin-1-yl)methanone] | 10.26 | 7.30 to 8.00 | 6.30 to 7.00 | < 6.30 | < 6.30
COc1cccc(CNC(=O)c2nc(N[C@@H](C)c3cncc(F)c3)nc3cc(C)sc23)n1 [Example Z374, (S)-2-((1-(5-Fluoropyridin-3-yl)ethyl)amino)-N-((6-methoxypyridin-2-yl)methyl)-6-methylthieno[3,2-d]pyrimidine-4-carboxamide] | 19.21 | > 8.00 | 6.30 to 7.00 | 7.00 to 7.30 | 7.30 to 8.00
COC1CN(C(=O)c2nc(N[C@@H](C)c3cncc(F)c3)nc3cc(C)sc23)C1 [Example Z268, (S)-(2-((1-(5-Fluoropyridin-3-yl)ethyl)amino)-6-methylthieno[3,2-d]pyrimidin-4-yl)(3-methoxyazetidin-1-yl)methanone] | 57.63 | > 8.00 | 7.00 to 7.30 | 7.00 to 7.30 | 7.00 to 7.30
((R)-3-Methoxypyrrolidin-1-yl)(2-(((S)-1-(pyridin-2-yl)ethyl)amino)thieno[3,2-d]pyrimidin-4-yl)methanone [Example Z247] | 2.54 | 7.30 to 8.00 | 7.00 to 7.30 | < 6.30 | < 6.30
C[C@H](Nc1nc(C(=O)N2CC[C@H](O)C2)c2sccc2n1)c1cncc(Cl)c1 [Example Z236, (2-(((S)-1-(5-Chloropyridin-3-yl)ethyl)amino)thieno[3,2-d]pyrimidin-4-yl)((S)-3-hydroxypyrrolidin-1-yl)methanone] | 57.61 | 7.30 to 8.00 | < 6.30 | < 6.30 | < 6.30
CNc1cc2nc(N[C@@H](C)c3ccccn3)nc(C(=O)N3CC(O)C3)c2s1 [Example Z221, (S)-(3-Hydroxyazetidin-1-yl)(6-(methylamino)-2-((1-(pyridin-2-yl)ethyl)amino)thieno[3,2-d]pyrimidin-4-yl)methanone] | 52.95 | 7.30 to 8.00 | < 6.30 | < 6.30 | 7.00 to 7.30
C[C@H](O)CNC(=O)c1nc(N[C@@H](C)c2cncc(F)c2)nc2cc(C(F)(F)F)sc12 [Example Z392, 2-(((S)-1-(5-fluoropyridin-3-yl)ethyl)amino)-N—((S)-2-hydroxypropyl)-6-(trifluoromethyl)thieno[3,2-d]pyrimidine-4-carboxamide] | 248.84 | > 8.00 | < 6.30 | 7.00 to 7.30 | 7.00 to 7.30
Cc1cc2nc(N[C@@H](C)c3cccnc3)nc(C(=O)NCCO)c2s1 [Example Z368, (S)—N-(2-Hydroxyethyl)-6-methyl-2-((1-(pyridin-3-yl)ethyl)amino)thieno[3,2-d]pyrimidine-4-carboxamide] | 74.02 | > 8.00 | 6.30 to 7.00 | 7.00 to 7.30 | 7.00 to 7.30
Cc1cc2nc(N[C@@H](C)c3ccccn3)nc(C(=O)N3CCCC3)c2s1 [Example Z244, (S)-(6-Methyl-2-((1-(pyridin-2-yl)ethyl)amino)thieno[3,2-d]pyrimidin-4-yl)(pyrrolidin-1-yl)methanone] | 18.24 | > 8.00 | 7.30 to 8.00 | 7.00 to 7.30 | 7.00 to 7.30
Cc1cc2nc(N[C@@H](C)c3cccnc3)nc(C(=O)NC[C@H](C)O)c2s1 [Example Z328, N—((S)-2-Hydroxypropyl)-6-methyl-2-(((S)-1-(pyridin-3-yl)ethyl)amino)thieno[3,2-d]pyrimidine-4-carboxamide] | 107.75 | > 8.00 | 6.30 to 7.00 | < 6.30 | 7.00 to 7.30
Cc1cc2nc(N[C@@H](C)c3cncc(F)c3)nc(C(=O)N3CCCC3)c2s1 [Example Z279, (S)-(2-((1-(5-Fluoropyridin-3-yl)ethyl)amino)-6-methylthieno[3,2-d]pyrimidin-4-yl)(pyrrolidin-1-yl)methanone] | 86.81 | > 8.00 | 7.00 to 7.30 | 7.00 to 7.30 | 7.00 to 7.30
COC1CN(C(=O)c2nc(N[C@@H](C)c3cncc(Cl)c3)nc3ccsc23)C1 [Example Z233, (S)-(2-((1-(5-Chloropyridin-3-yl)ethyl)amino)thieno[3,2-d]pyrimidin-4-yl)(3-methoxyazetidin-1-yl)methanone] | 51.97 | > 8.00 | 6.30 to 7.00 | < 6.30 | < 6.30
COC1CN(C(=O)c2nc(N[C@@H](C)c3cccnc3)nc3cc(C)sc23)C1 [Example Z286, (S)-(3-Methoxyazetidin-1-yl)(6-methyl-2-((1-(pyridin-3-yl)ethyl)amino)thieno[3,2-d]pyrimidin-4-yl)methanone] | 26.11 | > 8.00 | 7.00 to 7.30 | < 6.30 | < 6.30
Cc1cc2nc(N[C@@H](C)c3ccccn3)nc(C(=O)N3CCC3)c2s1 [Example Z284, (S)-Azetidin-1-yl(6-methyl-2-((1-(pyridin-2-yl)ethyl)amino)thieno[3,2-d]pyrimidin-4-yl)methanone] | 56.67 | > 8.00 | 7.00 to 7.30 | 7.00 to 7.30 | 7.00 to 7.30
Cc1cc2nc(N[C@@H](C)c3cccnc3)nc(C(=O)N3CC[C@H](CO)C3)c2s1 [Example Z336, ((S)-3-(Hydroxymethyl)pyrrolidin-1-yl)(6-methyl-2-(((S)-1-(pyridin-3-yl)ethyl)amino)thieno[3,2-d]pyrimidin-4-yl)methanone] | 136.91 | > 8.00 | < 6.30 | < 6.30 | < 6.30
Cc1cc2nc(N[C@@H](C)c3ccccn3)nc(C(=O)NC3CCC3)c2s1 [Example Z352, (S)—N-Cyclobutyl-6-methyl-2-((1-(pyridin-2-yl)ethyl)amino)thieno[3,2-d]pyrimidine-4-carboxamide] | 9.52 | > 8.00 | 7.30 to 8.00 | 7.00 to 7.30 | 7.00 to 7.30
CO[C@@H]1CCN(C(=O)c2nc(N[C@@H](C)c3cncc(F)c3)nc3cc(C)sc23)C1 [Example Z302, (2-(((S)-1-(5-Fluoropyridin-3-yl)ethyl)amino)-6-methylthieno[3,2-d]pyrimidin-4-yl)((R)-3-methoxypyrrolidin-1-yl)methanone] | 35.54 | > 8.00 | 7.00 to 7.30 | < 6.30 | 7.00 to 7.30
C[C@H](Nc1nc(C(=O)N[C@H]2CC[C@@H](O)C2)c2sccc2n1)c1cncc(F)c1 [Example Z329, 2-(((S)-1-(5-Fluoropyridin-3-yl)ethyl)amino)-N-((1S,3R)-3-hydroxycyclopentyl)thieno[3,2-d]pyrimidine-4-carboxamide] | 26.05 | > 8.00 | 7.30 to 8.00 | 7.00 to 7.30 | 7.00 to 7.30
CO[C@H]1CCN(C(=O)c2nc(N[C@@H](C)c3ccccn3)nc3cc(C)sc23)C1 [Example Z311, ((S)-3-Methoxypyrrolidin-1-yl)(6-methyl-2-(((S)-1-(pyridin-2-yl)ethyl)amino)thieno[3,2-d]pyrimidin-4-yl)methanone] | 3.82 | 7.30 to 8.00 | 7.00 to 7.30 | < 6.30 | 7.00 to 7.30
C[C@H](Nc1nc(C(=O)N2CC[C@@H](F)C2)c2sccc2n1)c1cncc(F)c1 [Example Z234, (2-(((S)-1-(5-Fluoropyridin-3-yl)ethyl)amino)thieno[3,2-d]pyrimidin-4-yl)((R)-3-fluoropyrrolidin-1-yl)methanone] | 58.04 | > 8.00 | 6.30 to 7.00 | < 6.30 | < 6.30
